The first assay deals with HSD17B13 (Homo sapiens (Human), UniProt Q7Z5P4). The experiment in a line: HSD17B13 enzymatic inhibition assay (150 nM or 50 nM HSD17B13). In kind it is biochemical. To be noted: 50 nM HSD17B13; read-out: Inhibition of 50 nM of HSD17B13 IC50.
HSD17B13, sequence (Q7Z5P4 other isoform, or with tags, fused parts or gaps): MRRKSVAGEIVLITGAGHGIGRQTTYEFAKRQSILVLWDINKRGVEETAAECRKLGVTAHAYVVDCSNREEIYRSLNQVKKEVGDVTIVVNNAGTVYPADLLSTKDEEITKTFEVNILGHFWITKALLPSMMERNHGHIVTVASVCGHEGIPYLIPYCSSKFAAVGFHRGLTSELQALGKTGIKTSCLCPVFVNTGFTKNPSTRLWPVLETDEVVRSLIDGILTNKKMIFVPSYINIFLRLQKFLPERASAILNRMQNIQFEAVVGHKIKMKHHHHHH
What is called IC50 is the concentration that gives 50% inhibition. On to `O=C(NC1c2ccccc2C=Cc2ccccc21)c1ccc(C(F)(F)F)[nH]c1=O` [Compound 5A, N-(5H-dibenzo[a,d][7]annulen-5-yl)-2-oxo-6-(trifluoromethyl)-1,2-dihydropyridine-3-carboxamide], for which the IC50 stood at 1520 nM. Turning to `Nc1ccc(C(NC(=O)c2ccc(C(F)(F)F)[nH]c2=O)c2ccccc2)cc1` (centres unmarked) [Compound 6A, N-((4-aminophenyl)(phenyl)methyl)-2-oxo-6-(trifluoromethyl)-1,2-dihydropyridine-3-carboxamide], the IC50 stood at 5150 nM.

In the case of `COc1ccccc1C(NC(=O)c1ccc(C(F)(F)F)[nH]c1=O)c1ccccc1` (centres unmarked) [Compound 8, N-((2-methoxyphenyl)(phenyl)methyl)-2-oxo-6-(trifluoromethyl)-1,2-dihydropyridine-3-carboxamide], the IC50 was 1610 nM. Take `O=C(NC1c2ccc(OC(F)(F)F)cc2-c2cc(OC(F)(F)F)ccc21)c1ccc(C(F)(F)F)[nH]c1=O` [Compound 8A, N-(3,6-bis(trifluoromethoxy)-9H-fluoren-9-yl)-2-oxo-6-(trifluoromethyl)-1,2-dihydropyridine-3-carboxamide]: the IC50 amounted to 6310 nM. Still for that read-out and setting: as for `O=C(NC(c1ccccc1)c1ccc(N2CCCCC2)cc1)c1ccc(C(F)(F)F)[nH]c1=O` (centres unmarked) [Compound 9A, 2-oxo-N-(phenyl(4-(piperidin-1-yl)phenyl)methyl)-6-(trifluoromethyl)-1,2-dihydropyridine-3-carboxamide], the figure is 1200 nM; as for `O=C(NC(c1ccc(Br)cc1)c1ccc(Br)cc1)c1ccc(C(F)(F)F)[nH]c1=O` [Compound 10, N-(bis(4-bromophenyl)methyl)-2-oxo-6-(trifluoromethyl)-1,2-dihydropyridine-3-carboxamide], 670 nM. With `O=C(NC1c2ccccc2Sc2ccccc21)c1ccc(C(F)(F)F)[nH]c1=O` [Compound 10A, 2-oxo-N-(9H-thioxanthen-9-yl)-6-(trifluoromethyl)-1,2-dihydropyridine-3-carboxamide], the IC50 turned out to be 1460 nM. The same measure, in the same setting: as for `O=C(NC(c1ccc(OC(F)(F)F)cc1)c1ccc(OC(F)(F)F)cc1)c1ccc(C(F)(F)F)[nH]c1=O` [Compound 11, N-(bis(4-(trifluoromethoxy)phenyl)methyl)-2-oxo-6-(trifluoromethyl)-1,2-dihydropyridine-3-carboxamide], the figure is 1090 nM. With `O=C(NC1c2ccccc2S(=O)(=O)c2ccccc21)c1ccc(C(F)(F)F)[nH]c1=O` [Compound 11A, N-(10,10-dioxido-9H-thioxanthen-9-yl)-2-oxo-6-(trifluoromethyl)-1,2-dihydropyridine-3-carboxamide], the IC50 is 1190 nM.

With `Cc1ccc(C(NC(=O)c2cnc(C(F)(F)F)[nH]c2=O)c2ccc(C)cc2)cc1` [Compound 13A, N-(di-p-tolylmethyl)-6-oxo-2-(trifluoromethyl)-1,6-dihydropyrimidine-5-carboxamide], the IC50 worked out at 1310 nM. `O=C(NC1c2ccc(Cl)cc2-c2cc(Cl)ccc21)c1ccc(C(F)(F)F)[nH]c1=O` [Compound 14A, N-(3,6-dichloro-9H-fluoren-9-yl)-2-oxo-6-(trifluoromethyl)-1,2-dihydropyridine-3-carboxamide]: the IC50 stood at 4280 nM. Same read-out and setting: as for `O=C(NC(c1ccccc1)c1ccc(O)c(F)c1)c1ccc(C(F)(F)F)[nH]c1=O` (centres unmarked) [Compound 16A, N-((3-fluoro-4-hydroxyphenyl)(phenyl)methyl)-2-oxo-6-(trifluoromethyl)-1,2-dihydropyridine-3-carboxamide], the figure is 3640 nM. As for `O=C(NC(c1ccccc1)c1ccccc1C(F)(F)F)c1ccc(C(F)(F)F)[nH]c1=O` (centres unmarked) [Compound 17A, 2-oxo-N-(phenyl(2-(trifluoromethyl)phenyl)methyl)-6-(trifluoromethyl)-1,2-dihydropyridine-3-carboxamide], the IC50 was determined as 3100 nM. With `Cc1ccc(C(NC(=O)c2cnc(C(F)(F)F)[nH]c2=O)c2ccccc2)cc1C` (centres unmarked) [Compound 18A, N-((3,4-dimethylphenyl)(phenyl)methyl)-6-oxo-2-(trifluoromethyl)-1,6-dihydropyrimidine-5-carboxamide], the IC50 is 2620 nM. Turning to `CC(NC(=O)c1ccc(C(F)(F)F)[nH]c1=O)(c1ccc(O)cc1)c1ccc(O)cc1` [Compound 21A, N-(1,1-bis(4-hydroxyphenyl)ethyl)-2-oxo-6-(trifluoromethyl)-1,2-dihydropyridine-3-carboxamide], the IC50 is 1850 nM. For the compound `CCC(NC(=O)c1ccc(C(F)(F)F)[nH]c1=O)c1ccc(Cl)cc1` (centres unmarked) [Compound 22A, N-(1-(4-chlorophenyl)propyl)-2-oxo-6-(trifluoromethyl)-1,2-dihydropyridine-3-carboxamide], the IC50 is 2960 nM. Consider `O=C(NC(c1ccc(O)cc1)c1ccc(O)cc1)c1ccc(C(F)(F)F)[nH]c1=O` [Compound 23, N-(bis(4-hydroxyphenyl)methyl)-2-oxo-6-(trifluoromethyl)-1,2-dihydropyridine-3-carboxamide], for which the IC50 was 4240 nM.

`O=C(NC(c1ccc(CC(F)(F)F)cc1)c1ccc(CC(F)(F)F)cc1)c1ccc(C(F)(F)F)[nH]c1=O` [Compound 23A, N-(bis(4-(2,2,2-trifluoroethyl)phenyl)methyl)-2-oxo-6-(trifluoromethyl)-1,2-dihydropyridine-3-carboxamide]: the IC50 amounted to 990 nM. For the compound `C/C=C/c1ccc(C(NC(=O)c2ccc(C(F)(F)F)[nH]c2=O)c2ccccc2)cc1` (centres unmarked) [Compound 29, (E)-2-oxo-N-(phenyl(4-(prop-1-en-1-yl)phenyl)methyl)-6-(trifluoromethyl)-1,2-dihydropyridine-3-carboxamide], the IC50 turned out to be 470 nM.

For the compound `C=C(C)c1ccc(C(NC(=O)c2ccc(C(F)(F)F)[nH]c2=O)c2ccccc2)cc1` (centres unmarked) [Compound 30, 2-oxo-N-(phenyl(4-(prop-1-en-2-yl)phenyl)methyl)-6-(trifluoromethyl)-1,2-dihydropyridine-3-carboxamide], the half-maximal inhibitory concentration (IC50) is 750 nM. With `O=C(NC(c1ccccc1)c1ccc(C2=CCCC2)cc1)c1ccc(C(F)(F)F)[nH]c1=O` (centres unmarked) [Compound 31, N-((4-(cyclopent-1-en-1-yl)phenyl)(phenyl)methyl)-2-oxo-6-(trifluoromethyl)-1,2-dihydropyridine-3-carboxamide], the IC50 was 460 nM. For `O=C(NC(c1ccccc1)c1ccc(C2=CCCCC2)cc1)c1ccc(C(F)(F)F)[nH]c1=O` (centres unmarked) [Compound 32, 2-oxo-N-(phenyl(2′,3′,4,5′-tetrahydro-[1,1′-biphenyl]-4-yl)methyl)-6-(trifluoromethyl)-1,2-dihydropyridine-3-carboxamide], the IC50 was 400 nM.

Consider `O=C(NC(c1ccccc1)c1ccc(C2=CCOCC2)cc1)c1ccc(C(F)(F)F)[nH]c1=O` (centres unmarked) [Compound 33, N-((4-(3,6-dihydro-2H-pyran-4-yl)phenyl)(phenyl)methyl)-2-oxo-6-(trifluoromethyl)-1,2-dihydropyridine-3-carboxamide], for which the concentration for half-maximal inhibition (IC50) was 820 nM. Same read-out and setting: as for `O=C(NC(c1ccc(F)cc1)c1ccc(F)cc1)c1ccc(C(F)(F)F)[nH]c1=O` [Compound 34, N-(bis(4-fluorophenyl)methyl)-2-oxo-6-(trifluoromethyl)-1,2-dihydropyridine-3-carboxamide], the figure is 1630 nM; as for `O=C(NC(c1ccccc1)c1ccc(C2CCCC2)cc1)c1ccc(C(F)(F)F)[nH]c1=O` (centres unmarked) [Compound 38, N-((4-cyclopentylphenyl)(phenyl)methyl)-2-oxo-6-(trifluoromethyl)-1,2-dihydropyridine-3-carboxamide], 450 nM; as for `O=C(NC(c1ccccc1)c1ccc(C2CCCCC2)cc1)c1ccc(C(F)(F)F)[nH]c1=O` (centres unmarked) [Compound 39, N-((4-cyclohexylphenyl)(phenyl)methyl)-2-oxo-6-(trifluoromethyl)-1,2-dihydropyridine-3-carboxamide], 490 nM. `O=C(NC1c2ccccc2CCc2ccccc21)c1ccc(C(F)(F)F)[nH]c1=O` [Compound 40, N-(10,11-dihydro-5H-dibenzo[a,d][7]annulen-5-yl)-2-oxo-6-(trifluoromethyl)-1,2-dihydropyridine-3-carboxamide]: the IC50 worked out at 1650 nM. On to `CN(C)c1ccc(C(NC(=O)c2ccc(C(F)(F)F)[nH]c2=O)c2ccccc2)cc1` (centres unmarked) [Compound 41, N-((4-(dimethylamino)phenyl) (phenyl)methyl)-2-oxo-6-(trifluoromethyl)-1,2-dihydropyridine-3-carboxamide], for which the half-maximal inhibitory concentration (IC50) stood at 1290 nM. `CCc1ccc2c(c1)-c1cc(CC)ccc1C2NC(=O)c1ccc(C(F)(F)F)[nH]c1=O` [Compound 42, N-(3,6-diethyl-9H-fluoren-9-yl)-2-oxo-6-(trifluoromethyl)-1,2-dihydropyridine-3-carboxamide]: the IC50 turned out to be 1300 nM.

`O=C(NC1c2ccc(O)cc2-c2cc(O)ccc21)c1ccc(C(F)(F)F)[nH]c1=O` [Compound 45, N-(3,6-dihydroxy-9H-fluoren-9-yl)-2-oxo-6-(trifluoromethyl)-1,2-dihydropyridine-3-carboxamide]: the IC50 stood at 1750 nM.

As for `O=C(NC1c2ccc(OC(F)F)cc2-c2cc(OC(F)F)ccc21)c1ccc(C(F)(F)F)[nH]c1=O` [Compound 47, N-(3,6-bis(difluoromethoxy)-9H-fluoren-9-yl)-2-oxo-6-(trifluoromethyl)-1,2-dihydropyridine-3-carboxamide], the IC50 stood at 1830 nM.

Staying with this assay, now noted: 150 nM HSD17B13; read-out: Inhibition of 150 nM of HSD17B13 IC50.
Regarding `COc1cccc(C(NC(=O)c2ccc(C(F)(F)F)[nH]c2=O)c2ccccc2)c1` (centres unmarked) [Compound 4, N-((3-methoxyphenyl)(phenyl)methyl)-2-oxo-6-(trifluoromethyl)-1,2-dihydropyridine-3-carboxamide], the IC50 turned out to be 4700 nM. For the compound `O=C(NC(c1ccccc1)c1cccc(Cl)c1)c1ccc(C(F)(F)F)[nH]c1=O` (centres unmarked) [Compound 6, N-((3-chlorophenyl)(phenyl)methyl)-2-oxo-6-(trifluoromethyl)-1,2-dihydropyridine-3-carboxamide], the IC50 is 4520 nM. `COc1ccccc1C(NC(=O)c1ccc(C(F)(F)F)[nH]c1=O)c1ccccc1` (centres unmarked) [Compound 8, N-((2-methoxyphenyl)(phenyl)methyl)-2-oxo-6-(trifluoromethyl)-1,2-dihydropyridine-3-carboxamide]: the IC50 worked out at 3230 nM. As to `Cc1cccc(C(NC(=O)c2ccc(C(F)(F)F)[nH]c2=O)c2ccccc2)c1` (centres unmarked) [Compound 20, N-(phenyl(m-tolyl)methyl)-2-oxo-6-(trifluoromethyl)-1,2-dihydropyridine-3-carboxamide], the IC50 came out at 2110 nM.

For the origin of these results see patent publication US11957687B2 (REGENERON PHARMACEUTICALS, INC., priority 2019, dated 2024).
